Usually Ki stands for the dissociation constant of the complex between target and ligand, obtained from inhibition or displacement. A low value points to tighter binding.

Ki data for two compounds are collected here from BindingDB's records for doi:10.1124/jpet.105.084343 (University of Rochester, 2005).

In test [1] the target is Kappa-type opioid receptor (Homo sapiens, UniProt P41145).
In test [2] the target is Delta-type opioid receptor (Homo sapiens, UniProt P41143).
A further test concerns the target Mu-type opioid receptor (Homo sapiens, UniProt P35372).

Sequence of Kappa-type opioid receptor (P41145 whole entry): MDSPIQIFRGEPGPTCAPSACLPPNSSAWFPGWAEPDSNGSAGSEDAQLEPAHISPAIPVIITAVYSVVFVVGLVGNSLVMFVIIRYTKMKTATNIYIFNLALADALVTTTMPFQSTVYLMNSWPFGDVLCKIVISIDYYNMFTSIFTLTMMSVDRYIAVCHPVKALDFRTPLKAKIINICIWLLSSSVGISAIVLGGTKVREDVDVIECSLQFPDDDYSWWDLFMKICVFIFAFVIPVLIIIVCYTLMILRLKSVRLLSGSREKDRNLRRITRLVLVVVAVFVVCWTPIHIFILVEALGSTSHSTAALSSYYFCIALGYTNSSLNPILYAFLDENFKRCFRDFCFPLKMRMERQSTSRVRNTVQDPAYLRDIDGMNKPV
Sequence of Delta-type opioid receptor (P41143 whole entry): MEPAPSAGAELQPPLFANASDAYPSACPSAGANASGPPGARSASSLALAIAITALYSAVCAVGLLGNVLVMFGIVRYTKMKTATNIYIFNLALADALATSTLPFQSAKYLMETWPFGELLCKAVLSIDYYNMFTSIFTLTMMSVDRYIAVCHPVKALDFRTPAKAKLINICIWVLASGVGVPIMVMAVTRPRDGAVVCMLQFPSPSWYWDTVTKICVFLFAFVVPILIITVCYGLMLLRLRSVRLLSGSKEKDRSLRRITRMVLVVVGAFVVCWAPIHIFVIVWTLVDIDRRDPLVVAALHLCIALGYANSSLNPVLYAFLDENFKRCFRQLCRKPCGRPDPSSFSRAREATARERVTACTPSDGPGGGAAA
Sequence of Mu-type opioid receptor (P35372 whole entry): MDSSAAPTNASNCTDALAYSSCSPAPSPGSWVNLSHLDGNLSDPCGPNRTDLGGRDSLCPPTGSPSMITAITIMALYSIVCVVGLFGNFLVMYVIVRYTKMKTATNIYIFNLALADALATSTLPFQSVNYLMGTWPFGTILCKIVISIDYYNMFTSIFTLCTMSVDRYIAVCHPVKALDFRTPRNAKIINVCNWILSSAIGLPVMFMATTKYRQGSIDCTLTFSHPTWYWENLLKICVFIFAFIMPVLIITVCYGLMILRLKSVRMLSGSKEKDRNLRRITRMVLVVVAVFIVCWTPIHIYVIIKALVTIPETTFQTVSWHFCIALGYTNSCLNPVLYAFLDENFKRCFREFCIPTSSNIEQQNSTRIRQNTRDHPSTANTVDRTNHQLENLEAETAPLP

Compound `Oc1ccc2c(c1)[C@@]13CCCC[C@H]1C(C2)N(CC1CCC1)CC3` [MCL-101] registered an inhibition constant (Ki) in test [1] of 79 nM.

On to `O=C(/C=C/C(=O)Oc1ccc2c(c1)[C@]13CCCCC1[C@H](C2)N(CC1CCC1)CC3)Oc1ccc2c(c1)[C@]13CCCCC1[C@H](C2)N(CC1CCC1)CC3` (some centres undefined) [MCL-145], for which the figures for the inhibitory constant (Ki) (in test [2]; at Mu-type opioid receptor; in test [1]) were 9400 nM, 200 nM and 78 nM, respectively.
